One assay deals with T1, CCK-1 receptor (Homo sapiens, UniProt P32238).
T1 construct: expressed in transfected cells; host or cells: CHO-K1
T1 sequence (P32238 1-428): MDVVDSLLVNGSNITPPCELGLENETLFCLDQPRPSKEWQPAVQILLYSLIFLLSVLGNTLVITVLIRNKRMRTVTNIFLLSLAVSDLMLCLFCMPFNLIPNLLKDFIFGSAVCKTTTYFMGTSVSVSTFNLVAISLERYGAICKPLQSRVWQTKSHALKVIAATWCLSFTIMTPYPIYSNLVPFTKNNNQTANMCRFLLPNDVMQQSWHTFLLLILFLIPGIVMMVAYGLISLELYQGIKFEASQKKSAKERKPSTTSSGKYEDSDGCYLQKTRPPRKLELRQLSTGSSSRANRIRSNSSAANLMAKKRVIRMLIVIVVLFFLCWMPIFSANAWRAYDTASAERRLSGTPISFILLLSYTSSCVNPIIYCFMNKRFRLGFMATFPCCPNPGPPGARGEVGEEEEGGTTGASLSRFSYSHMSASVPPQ
Nature of the assay: CCK1 binding assay ([125I]-BH-CCK-8S displacement, CHO-K1 membranes). To be noted: membranes of CHO-K1 cells stably transfected with the CCK-1 receptor, 20 pM [125I]-BH-CCK-8S, 0.3 μM PD-134,308 present, 60 min at 21±3° C.; for Ki: read-out: CCK1 pKi (converted). The method, boiled down:
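Membranes from CHO-K1 cells stably expressing CCK-1 incubated 1 h at 21±3° C with 20 pM [125I]-BH-CCK-8S in HEPES buffer pH 7.2 containing 0.3 μM PD-134,308 to block CCK-2. Bound radioactivity read by gamma counting after filtration. pKi derived via Cheng-Prusoff, with specific binding defined using 2-NAP.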

In the next assay the target is T2, CCK2 receptor (Homo sapiens, UniProt P32239).
T2 construct: analyzed for ZFP expression as well as CCK2R induction upon addition of doxycycline to the culture medium; endogenous in cells
T2 sequence (P32239 1-447): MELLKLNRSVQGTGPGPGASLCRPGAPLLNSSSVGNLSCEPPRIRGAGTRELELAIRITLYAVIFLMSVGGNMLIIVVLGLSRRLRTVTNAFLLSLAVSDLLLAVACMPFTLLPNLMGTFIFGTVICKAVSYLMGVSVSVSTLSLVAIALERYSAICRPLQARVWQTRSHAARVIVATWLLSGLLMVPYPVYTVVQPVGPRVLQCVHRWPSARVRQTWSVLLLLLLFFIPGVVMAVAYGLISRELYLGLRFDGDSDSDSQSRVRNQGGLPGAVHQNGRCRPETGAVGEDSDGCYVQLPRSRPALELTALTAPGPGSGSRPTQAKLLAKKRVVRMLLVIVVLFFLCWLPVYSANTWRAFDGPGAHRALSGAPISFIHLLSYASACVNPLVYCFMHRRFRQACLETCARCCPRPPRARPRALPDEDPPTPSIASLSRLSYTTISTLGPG
Nature of the assay: CCK2 binding assay ([125I]-BH-CCK-8S displacement, HEKZFP membranes). To be noted: membranes of doxycycline-induced HEKZFP cells, 20 pM [125I]-BH-CCK-8S, 60 min at 21±3° C.; for Ki: read-out: CCK2 pKi (converted).

Consider `O=C(N[C@@H](Cc1ccc(Cl)c(Cl)c1)C(=O)O)c1ccc(I)cc1NS(=O)(=O)c1cccc2nccnc12` [Example 132, (S)-3-(3,4-Dichloro-phenyl)-2-[4-iodo-2-(quinoxaline-5-sulfonylamino)-benzoylamino]-propionic acid], for which the Ki at CCK-1 receptor was 0.251 µM; at CCK2 receptor it was 0.0158 µM.

In the case of `COC(=O)[C@H](Cc1ccc(F)c(Br)c1)NC(=O)c1ccc(Cl)cc1NS(=O)(=O)c1cccc2nccnc12` [Example 152, (S)-3-(3-Bromo-4-fluoro-phenyl)-2-[4-chloro-2-(quinoxaline-5-sulfonylamino)-benzoylamino]-propionic acid methyl ester], the values for the Ki on CCK-1 receptor and on CCK2 receptor were 1 µM and 0.158 µM, respectively.

As to `O=C(N[C@@H](Cc1ccc(Cl)c(Cl)c1)C(=O)NCc1ccc(F)cc1)c1ccc(Cl)cc1NS(=O)(=O)c1cccc2nsnc12` [Example 130, (S)-2-(Benzo[1,2,5]thiadiazole-4-sulfonylamino)-4-chloro-N-[2-(3,4-dichloro-phenyl)-(4-fluoro-benzylcarbamoyl)-ethyl]-benzamide], the Ki at CCK-1 receptor was 0.398 µM; on CCK2 receptor, 0.316 µM.

In the case of `C[C@H](NC(=O)c1ccc(Cl)cc1NS(=O)(=O)c1cccc2nsnc12)C(O)(c1ccccc1)c1ccccc1` [Example 74, (S)-2-(Benzo[1,2,5]thiadiazole-4-sulfonylamino)-4-chloro-N-(2-hydroxy-1-methyl-2,2-diphenyl-ethyl)-benzamide], the Ki at CCK-1 receptor is 0.316 µM; on CCK2 receptor it was 7.94 µM.

Consider `COC(=O)[C@H](Cc1ccc(Br)s1)NC(=O)c1ccc(Cl)cc1NS(=O)(=O)c1cccc2nccnc12` [Example 8, (S)-3-(5-Bromo-thiophen-2-yl)-2-[4-chloro-2-(quinoxaline-5-sulfonylamino)-benzoylamino]-propionic acid methyl ester], for which the figures for the Ki at CCK-1 receptor and on CCK2 receptor were 3.16 µM and 0.501 µM, respectively.

Consider `O=C(N[C@@H](Cc1ccc(Cl)c(Br)c1)C(=O)O)c1ccc(Br)cc1NS(=O)(=O)c1cccc2nccnc12` [Example 155, (S)-3-(3-Bromo-4-chloro-phenyl)-2-[4-bromo-2-(quinoxaline-5-sulfonylamino)-benzoylamino]-propionic acid], for which the “CCK1 pKi” value at CCK-1 receptor came to 7.0. Moreover, the “CCK2 pKi” value at CCK2 receptor amounted to 8.0.

As for `CC(CNC(=O)c1ccc(Cl)cc1NS(=O)(=O)c1ccc(F)cc1F)c1ccc(Cl)c(Cl)c1` (racemic) [Example 10, (±)-4-Chloro-N-[2-(3,4-dichloro-phenyl)-propyl]-2-(2,4-difluorobenzenesulfonylamino)-benzamide], the Ki on CCK-1 receptor was 0.02 µM; at CCK2 receptor, 7.94 µM.

With `O=C(N[C@@H](Cc1csc2ccccc12)C(=O)O)c1ccc(Cl)cc1NS(=O)(=O)c1cccc2nccnc12` [Example 66, (S)-3-Benzo[b]thiophen-3-yl-2-[4-chloro-2-(quinoxaline-5-sulfonylamino)-benzoylamino]-propionic acid], the Ki at CCK-1 receptor is 2 µM; on CCK2 receptor it was 0.501 µM.

For `COC(=O)[C@H](Cc1ccc(Cl)c(I)c1)NC(=O)c1ccc(I)cc1NS(=O)(=O)c1cccc2nccnc12` [Example 137, (S)-3-(4-Chloro-3-iodo-phenyl)-2-[4-iodo-2-(quinoxaline-5-sulfonylamino)-benzoylamino]-propionic acid methyl ester], the figures for the Ki at CCK-1 receptor and on CCK2 receptor were 0.0794 µM and 0.2 µM, respectively.

Regarding `C[C@@H](NC(=O)c1ccc(I)cc1NS(=O)(=O)c1cccc2nsnc12)[C@@H](O)c1ccc(Cl)cc1` [Example 99, 2-(Benzo[1,2,5]thiadiazole-4-sulfonylamino)-N-[(2S,1R)-2-(4-chloro-phenyl)-2-hydroxy-1-methyl-ethyl]-4-iodo-benzamide], the figures for the Ki at CCK-1 receptor and at CCK2 receptor were 0.0794 µM and 0.794 µM, respectively.

Regarding `O=C(N[C@H](Cc1cccc(Br)c1)C(=O)O)c1ccc(I)cc1NS(=O)(=O)c1cccc2nsnc12` [Example 115, (R)-2-[2-(Benzo[1,2,5]thiadiazole-4-sulfonylamino)-4-iodo-benzoylamino]-3-(3-bromo-phenyl)-propionic acid], the Ki at CCK-1 receptor was 0.398 µM; on CCK2 receptor, 0.0794 µM.

The values are drawn from patent US7855292B2, “Sulfonamide compounds” (Janssen Pharmaceutica NV, priority 2004, dated 2010).
